This is an account of results in PubChem BioAssay (NCI).

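Following 48 hours of exposure in 96-well plates, responses at five concentrations were used to interpolate endpoints linearly. TGI denotes the concentration required for complete inhibition of growth.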

For the first test, the system named is CCRF-CEM leukemia. Description: DTP human tumour cell line panel, 48 h.
As usually defined, the TGI is the concentration giving total growth inhibition. A low value points to greater sensitivity of the cells. `O=Nc1c(O)cc(Nc2ccc(Br)cc2)c2ccccc12` showed a TGI of over 100 µM.

Regarding `Cc1csc(=S)n1OC(=O)NC1CCCCC1`, the TGI is over 28.2 µM.

In turn, `C=CC/C=C/Cc1csc(C(C)(C)C(O)C/C=C/C(=C)CCNC(=O)OC)n1` (configuration not stated) gave a TGI of over 100 µM.

In turn, `COc1ccc(C2=Nc3ccccc3NC(=O)C2)cc1` yielded a TGI of over 100 µM.

Take `O=c1c2nn3c(=O)n(-c4ccccc4)c(=O)c3nn2c(=O)n1-c1ccccc1`: the TGI was over 100 µM.

`COC(=O)C1=CC2CCCC1(O)C(C(C)=O)C2` (configuration not stated) showed a TGI of over 68.3 µM.

Take `Cc1ccc(C2=Nc3cccc4cccc(c34)N2)cc1`: the TGI was over 100 µM.

`COC(=O)c1ccccc1CC1Cc2ccc3c(c2C1=O)CCC3` (configuration not stated): the TGI is over 100 µM.

As to `CS(=O)(=O)N1CC(CCl)c2ccc([N+](=O)[O-])cc21` (configuration not stated), the TGI was over 100 µM.

`O=c1cc(NNc2ccccc2)[nH]c(=S)[nH]1` gave a TGI of 88.6 µM.

As for `CC(=O)NC(CS/N=N/c1nc[nH]c1C(N)=O)C(=O)O` (configuration not stated), the TGI was over 23.1 µM.

In turn, `CSc1ncc2c(C#N)c3sc4ccccc4n3c(=O)c2n1` had a TGI of over 100 µM.

A further test relates to SK-OV-3 ovarian. The test is described as follows: DTP human tumour cell line panel, 48 h.
In the case of `O=C(COc1ccc2c(=O)cc(-c3ccccc3)oc2c1)N1CCN(c2ccccc2)CC1`, the total growth inhibition concentration (TGI) was over 100 µM.

The molecule `Cn1cnc(CCc2ccccc2)n1` returned a TGI of over 100 µM.

For the molecule `CC1=C(C(=O)O)N2C(=O)[C@@H](NC(=O)C(c3ccc(O)cc3)N3CSC(=S)N(C(C)C)C3)C2SC1` (some centres not stated), the TGI was over 100 µM.

With `COc1cc(OC)c2c(c1)C(=O)C(CC(C)O)=CC2=O` (configuration not stated), the TGI was 31.9 µM. In other words, the double-digit micromolar range.

Take `O=Nc1c(O)cc(Nc2ccc(Br)cc2)c2ccccc12`: the TGI is 30.8 µM. The TGI values of the last two molecules are within 1.5-fold of each other.

The molecule `Cc1csc(=S)n1OC(=O)NC1CCCCC1` registered a TGI of over 100 µM.

In the case of `C=CC/C=C/Cc1csc(C(C)(C)C(O)C/C=C/C(=C)CCNC(=O)OC)n1` (configuration not stated), the TGI was over 100 µM.

`COc1ccc(C2=Nc3ccccc3NC(=O)C2)cc1`: the TGI was determined as 38.2 µM.

The molecule `O=c1c2nn3c(=O)n(-c4ccccc4)c(=O)c3nn2c(=O)n1-c1ccccc1` showed a TGI of over 100 µM.

`COC(=O)C1=CC2CCCC1(O)C(C(C)=O)C2` (configuration not stated) yielded a concentration for total growth inhibition (TGI) of over 100 µM.

In turn, `Cc1ccc(C2=Nc3cccc4cccc(c34)N2)cc1` displayed a TGI of over 100 µM.

Molecule `COC(=O)c1ccccc1CC1Cc2ccc3c(c2C1=O)CCC3` (configuration not stated) came in with a TGI of over 100 µM.

On to `CS(=O)(=O)N1CC(CCl)c2ccc([N+](=O)[O-])cc21` (configuration not stated), for which the TGI was over 100 µM.

Consider `O=c1cc(NNc2ccccc2)[nH]c(=S)[nH]1`, for which the TGI was over 100 µM.

In the case of `CC(=O)NC(CS/N=N/c1nc[nH]c1C(N)=O)C(=O)O` (configuration not stated), the TGI was over 100 µM.

Molecule `CSc1ncc2c(C#N)c3sc4ccccc4n3c(=O)c2n1` came in with a TGI of over 100 µM.

For a further test, the system named is T-47D breast. Description: DTP human tumour cell line panel, 48 h.
As to `O=Nc1c(O)cc(Nc2ccc(Br)cc2)c2ccccc12`, the TGI is over 73.8 µM.

For the molecule `C=CC/C=C/Cc1csc(C(C)(C)C(O)C/C=C/C(=C)CCNC(=O)OC)n1` (configuration not stated), the TGI was over 100 µM.

Consider `O=c1c2nn3c(=O)n(-c4ccccc4)c(=O)c3nn2c(=O)n1-c1ccccc1`, for which the TGI is over 100 µM.

The molecule `COC(=O)C1=CC2CCCC1(O)C(C(C)=O)C2` (configuration not stated) displayed a TGI of over 100 µM.

In turn, `Cc1ccc(C2=Nc3cccc4cccc(c34)N2)cc1` had a TGI of over 100 µM.

`COC(=O)c1ccccc1CC1Cc2ccc3c(c2C1=O)CCC3` (configuration not stated) yielded a TGI of over 100 µM.

For `CS(=O)(=O)N1CC(CCl)c2ccc([N+](=O)[O-])cc21` (configuration not stated), the TGI is over 100 µM.

In turn, `O=c1cc(NNc2ccccc2)[nH]c(=S)[nH]1` yielded a TGI of over 100 µM.

On to `CC(=O)NC(CS/N=N/c1nc[nH]c1C(N)=O)C(=O)O` (configuration not stated), for which the TGI is over 100 µM.

Take `CSc1ncc2c(C#N)c3sc4ccccc4n3c(=O)c2n1`: the concentration for total growth inhibition (TGI) is over 100 µM.

The test system of a further test is PC-3 prostate. Description: DTP human tumour cell line panel, 48 h.
`O=Nc1c(O)cc(Nc2ccc(Br)cc2)c2ccccc12` registered a TGI of over 100 µM.

Molecule `C=CC/C=C/Cc1csc(C(C)(C)C(O)C/C=C/C(=C)CCNC(=O)OC)n1` (configuration not stated) returned a TGI of over 100 µM.

The molecule `O=c1c2nn3c(=O)n(-c4ccccc4)c(=O)c3nn2c(=O)n1-c1ccccc1` returned a TGI of over 100 µM.

Consider `COC(=O)C1=CC2CCCC1(O)C(C(C)=O)C2` (configuration not stated), for which the TGI is over 100 µM.

With `Cc1ccc(C2=Nc3cccc4cccc(c34)N2)cc1`, the TGI was over 100 µM.

In turn, `COC(=O)c1ccccc1CC1Cc2ccc3c(c2C1=O)CCC3` (configuration not stated) displayed a TGI of over 100 µM.

As for `CS(=O)(=O)N1CC(CCl)c2ccc([N+](=O)[O-])cc21` (configuration not stated), the TGI is over 100 µM.

`O=c1cc(NNc2ccccc2)[nH]c(=S)[nH]1`: the TGI was over 100 µM.

Molecule `CC(=O)NC(CS/N=N/c1nc[nH]c1C(N)=O)C(=O)O` (configuration not stated) came in with a TGI of over 100 µM.

Regarding `CSc1ncc2c(C#N)c3sc4ccccc4n3c(=O)c2n1`, the TGI was over 100 µM.

The next test has as its system HCC-2998 colon. Description: DTP human tumour cell line panel, 48 h.
`O=C(COc1ccc2c(=O)cc(-c3ccccc3)oc2c1)N1CCN(c2ccccc2)CC1` yielded a TGI of over 100 µM.

For `COc1cc(OC)c2c(c1)C(=O)C(CC(C)O)=CC2=O` (configuration not stated), the TGI was determined as 43.7 µM. This lies in the double-digit micromolar range.

`O=Nc1c(O)cc(Nc2ccc(Br)cc2)c2ccccc12`: the TGI came out at 19.4 µM.

Molecule `Cc1csc(=S)n1OC(=O)NC1CCCCC1` yielded a TGI of over 100 µM.

In the case of `C=CC/C=C/Cc1csc(C(C)(C)C(O)C/C=C/C(=C)CCNC(=O)OC)n1` (configuration not stated), the TGI is over 100 µM.

`COc1ccc(C2=Nc3ccccc3NC(=O)C2)cc1` displayed a TGI of over 100 µM.

In turn, `O=c1c2nn3c(=O)n(-c4ccccc4)c(=O)c3nn2c(=O)n1-c1ccccc1` displayed a TGI of over 100 µM.

`COC(=O)C1=CC2CCCC1(O)C(C(C)=O)C2` (configuration not stated) showed a TGI of over 100 µM.

With `Cc1ccc(C2=Nc3cccc4cccc(c34)N2)cc1`, the TGI is over 100 µM.

Molecule `COC(=O)c1ccccc1CC1Cc2ccc3c(c2C1=O)CCC3` (configuration not stated) returned a TGI of over 100 µM.

Molecule `CS(=O)(=O)N1CC(CCl)c2ccc([N+](=O)[O-])cc21` (configuration not stated) came in with a TGI of over 100 µM.

`O=c1cc(NNc2ccccc2)[nH]c(=S)[nH]1` returned a TGI of 50.5 µM. This lies in the double-digit micromolar range.

On to `CC(=O)NC(CS/N=N/c1nc[nH]c1C(N)=O)C(=O)O` (configuration not stated), for which the concentration for total growth inhibition (TGI) was over 27.9 µM.

On to `CSc1ncc2c(C#N)c3sc4ccccc4n3c(=O)c2n1`, for which the TGI is over 100 µM.

Another test relates to SNB-19 CNS. Description: DTP human tumour cell line panel, 48 h.
With `O=C(COc1ccc2c(=O)cc(-c3ccccc3)oc2c1)N1CCN(c2ccccc2)CC1`, the TGI was over 100 µM.

With `CC1=C(C(=O)O)N2C(=O)[C@@H](NC(=O)C(c3ccc(O)cc3)N3CSC(=S)N(C(C)C)C3)C2SC1` (some centres not stated), the TGI is over 100 µM.

Regarding `COc1cc(OC)c2c(c1)C(=O)C(CC(C)O)=CC2=O` (configuration not stated), the TGI amounted to 31.6 µM.

In turn, `O=Nc1c(O)cc(Nc2ccc(Br)cc2)c2ccccc12` yielded a TGI of 11.8 µM.

As for `Cc1csc(=S)n1OC(=O)NC1CCCCC1`, the TGI is over 100 µM.

On to `C=CC/C=C/Cc1csc(C(C)(C)C(O)C/C=C/C(=C)CCNC(=O)OC)n1` (configuration not stated), for which the TGI was over 100 µM.

As to `COc1ccc(C2=Nc3ccccc3NC(=O)C2)cc1`, the TGI was over 100 µM.

Consider `O=c1c2nn3c(=O)n(-c4ccccc4)c(=O)c3nn2c(=O)n1-c1ccccc1`, for which the TGI is over 100 µM.

`COC(=O)C1=CC2CCCC1(O)C(C(C)=O)C2` (configuration not stated) returned a TGI of over 100 µM.

On to `Cc1ccc(C2=Nc3cccc4cccc(c34)N2)cc1`, for which the TGI is over 100 µM.
